# Measured values taken from patent publication US20250009726A1, “A PHARMACEUTICAL COMPOSITION OF FXR AGONIST AND ITS PREPARATION METHOD” (GANNEX PHARMA CO., LTD., priority 2021, published 2025).
# Entries after “also recorded” stand apart in the source; their conditions may differ.
# Tests used:
# Type in all cases: physicochemical
# [1] = Compatibility test of API and excipients (strong light, high temperature, high humidity, 17 days)
# [2] = Log D of the compound of formula (I)
# From the text: (§1) The solubility of drugs in the acidic environment of the gastrointestinal tract is a prerequisite for their transmembrane transport and absorption into the human body to exert efficacy. Therefore, the very low solubility of the compound limits its use for development as a drug candidate.
# [3] = pKa of the compound of formula (I)
# From the text: as §1
# [4] = Equilibrium solubility in media with different pH values (shaking 72 h, 37° C.); settings: for solubility thermodynamic at 72 h: thermodynamic from solid
# [5] = Solubility in solvents (descriptive)
# From the text: as §1
# [6] = Related substances of pilot tablet batches and API (area normalization); settings: batch after manufacture
# From the text: The amount of impurities in each batch of samples were relatively stable and no significant change in the amount and type of impurities was observed after the tableting process.
# [7] = normal temperatur, 92.5% RH-17 Days
smiles,measurement,setting,value
"O=C([O-])c1ccc(Oc2ccc3cc(OCc4c(-c5c(Cl)cccc5Cl)noc4C4CC4)ccc3c2)nc1.[Na+] [COMPOUND I, 6-(6-(((5-cyclopropyl-3-(2,6-dichlorophenyl)isoxazol-4-yl)methoxy)naphthalene-2-yl)oxy) sodium nicotinate]",Related substances (%) COMPOUND I-B,[1]; 0 Day,0.2869%
same,Related substances (%) COMPOUND I-IM1,[1]; 0 Day,0.2264%
same,Related substances (%) Other maximum impurities,[1]; 0 Day,0.1001%
same,Related substances (%) Total impurities,[1]; 0 Day,1.4056%
same,Related substances (%) COMPOUND I-B,"[1]; 25° C., 4500Lx-17 Days",0.2896%
same,Related substances (%) COMPOUND I-IM1,"[1]; 25° C., 4500Lx-17 Days",0.2338%
same,Related substances (%) Other maximum impurities,"[1]; 25° C., 4500Lx-17 Days",0.1135%
same,Related substances (%) Total impurities,"[1]; 25° C., 4500Lx-17 Days",1.4901%
same,Related substances (%) COMPOUND I-B,[1]; 60° C.-17 Days,0.2964%
same,Related substances (%) COMPOUND I-IM1,[1]; 60° C.-17 Days,0.2278%
same,Related substances (%) Other maximum impurities,[1]; 60° C.-17 Days,0.1158%
same,Related substances (%) Total impurities,[1]; 60° C.-17 Days,1.4686%
same,Related substances (%) COMPOUND I-B,[1]; [7],0.2836%
same,Related substances (%) COMPOUND I-IM1,[1]; [7],0.2318%
same,Related substances (%) Other maximum impurities,[1]; [7],0.1124%
same,Related substances (%) Total impurities,[1]; [7],1.4400%
same,total impurity fluctuations of related substances,"[1]; strong light, high temperature and high humidity, compared with 0 day",less than 0.5%
same,logD,[2],5.76
same,pKa,[3],3.76
same,solubility thermodynamic at 72 h,"[4]; aqueous buffer, pH 6.0, 37° C.",1.5 µg/mL
same,solubility thermodynamic at 72 h,"[4]; aqueous buffer, pH 6.8, 37° C.",217 µg/mL
same,solubility thermodynamic at 72 h,"[4]; aqueous buffer, pH 7.0, 37° C.",365 µg/mL
same,solubility thermodynamic at 72 h,"[4]; aqueous buffer, pH 8.0, 37° C.",20400 µg/mL
same,solubility (in words),[4]; low pH (pH 1.0-5.0),almost insoluble
same,solubility (in words),"[4]; low pH (pH 1.0-5.0), listed as compound of formula (I)",practically insoluble
same,solubility (in words),[4]; pH 6.8,very slightly soluble
same,solubility (in words),[4]; pure water,sparingly soluble; also recorded: slightly soluble
same,solubility thermodynamic at 72 h,"[4]; water, pH 9.3, water, H2O (The final pH was around 9.3), 37° C.",22300 µg/mL
same,solubility,[5]; 0.01 mol/L sodium hydroxide solutions,practically insoluble
same,solubility,"[5]; N, N-dimethylformamide",soluble
same,solubility,[5]; acetonitrile,practically insoluble
same,solubility,[5]; dimethyl sulfoxide,soluble
same,solubility,[5]; ethyl acetate,practically insoluble
same,solubility,[5]; methanol,soluble
same,solubility,[5]; tetrahydrofuran,practically insoluble
same,solubility,[5]; water,practically insoluble
same,COMPOUND I-C,[6]; criterion NMT 0.15%,Not detected
same,COMPOUND I-IM1,[6]; criterion NMT 0.15%,0.12%
same,COMPOUND I-IM2,[6]; criterion NMT 0.15%,0.12%
same,Any individual unspecified impurity,[6]; criterion NMT 0.2%,0.048%
same,COMPOUND I-B,[6]; criterion NMT 0.20%,0.015%
same,Total impurities,[6]; criterion NMT 2.0%,0.47%
